The values below come from US9701667B2, “Coumarin-based fluorogenic agents and uses thereof for specific protein labelling” (UNIVERSITY OF OTTAWA, priority 2014, dated 2017).

Entries after “also recorded” stand apart in the source; their conditions may differ.

One series deals with HEK293T cells. Description: MTT cytotoxicity assay. The conditions noted are these: 20 h incubation. The format is cell-based, human. As for the experimental part:
3-(4,5-Dimethylthiazol-2-yl)-2,5-diphenyl tetrazolium bromide (MTT) is a yellow tetrazolium salt and can be reduced to formazan crystals, which are insoluble in aqueous solutions, by active mitochondria in living cells. The resulting intracellular purple formazan can be dissolved in Triton X100, and therefore quantified by measuring absorption of the solution.
Cells were seeded in a 96-well plate and incubated with 100 μL of culture medium with different amounts of the fluorogen YCx for 16 h. No fluorogen was added to the positive control and no cells were plated in the negative control. Portions of 25 μL of MTT solution (5 mg in 1 mL of Hanks' balanced salt solution) were added to the wells and the cells were further incubated at 37° C. for 4 h. Solubilization solutions (100 μL) were then added and incubated in 96-well plates at room temperature in the dark overnight. The absorption of each well was measured using a plate reader at a wavelength of 570 nm with 690 nm as a reference. Cell viability was calculated according to the following equation: Cell viability=(Awith fluorogen−Anegative control)/(Apositive control−Anegative control).
For orientation: Tetrazolium dyes change colour on reduction, which living cells bring about.

The test system of series [1] is MBP-dC10α. Description: Fluorescence properties and fluorescence enhancement (FE) before/after labelling of model target protein. The format is biochemical. The settings on record: for Fluorescence enhancement (FE): after labelling with MBP-dC10, λex = 440 nm, λem = 485 nm, 50 mM HEPES pH 7.4; for fluorescence after the labelling reaction: after reaction with MBP-dC10α; for background (intrinsic) fluorescence before labelling / quenching: fluorogen without target protein. How it is done:
For experiments described herein, maltose-binding protein (MBP) was chosen as a highly-soluble test protein and the dC10α tag was fused to its C-terminus (MBP-dC10α) as described previously (Guy, J. et al., Mol. Biosyst. 2010, 6, 976-987).
Emission spectra and fluorescence intensity measurements were recorded at 37° C. with a Synergy H4 Hybrid Multi-Mode Microplate Reader with excitation and emission monochromators set at 9 nm bandpass. The mixture of 100 μM solution of fluorogen (YCx) and 100 μM MBP-dC10 in 50 mM HEPES buffer (pH 7.4) with 5% DMSO was incubated at 37° C. in the dark for 12 hours, after which the fluorescence emission spectrum of a dilution (25 μM final) in 50 mM HEPES buffer with 5% DMSO was recorded. The emission spectra of the corresponding labelling reagent in same solution without MBP-dC10α were also recorded. The ratio of fluorescence intensity at maximum emission gave the fluorescence enhancement (FE) ratio.

In series [2] the test system is MBP-dC10α. Description: Time-dependent fluorescence increase on reaction with test protein. The format is biochemical. The conditions noted are these: for reactivity with test protein MBP-dC10: 25 μM fluorogen, 25 μM MBP-dC10, 50 mM HEPES pH 7.4; for selectivity of labelling target protein over GSH: MBP-dC10 versus GSH. As for the experimental part: (§1) Reactivity was tested through the time-dependent fluorescence increase at 37° C. using Synergy H4 Hybrid Multi-Mode Microplate Reader with excitation and emission monochromators set to 9 nm bandpass. All reactions were prepared in 50 mM HEPES buffer (pH 7.4) with 5% DMSO. Solutions of MBP-dC10α or GSH were prepared in 96-well plates and labelling reagent (YCx) in DMSO was added immediately before recording. The final concentration of labelling reagent was 25 μM, the final concentration of MBP-dC10α was 25 μM and the final concentration of GSH was 50 μM or 1 mM in 50 mM HEPES buffer (pH 7.4) with 5% DMSO. Samples were excited at 440 nm and fluorescence intensity was followed at 485 nm as a function of time.

A short description of series [3]: Kinetic studies of consecutive thiol addition reactions with model thiol MPA. The conditions noted are these: for first thiol addition faster than second addition: ratio of first to second MPA addition rate; for k1 / k2: second order rate constant, 50 mM HEPES pH 7.4, 5% DMSO, 37° C.; for k1: first thiol addition of MPA; for k2: second thiol addition of MPA. How it is done: Kinetic studies were then performed for the thiol addition reactions of YC5 and YC9 with 3-mercaptopropionic acid (MPA) as a water-soluble, nucleophilic model thiol (Scheme 13). Reactions were run in the presence of a large excess of MPA, making them pseudo-first order in fluorogen. The resulting time-dependent increase in fluorescence was fit to a model for consecutive first order reactions, providing pseudo-first order rate constants for both addition steps. The concentration of MPA was then varied, allowing second order rate constants to be calculated for both steps.
where I is fluorescence intensity, and the fluorescence intensity is linearly proportional to the concentration, since the concentration of fluorogen used here is within the linear range. So IA=a*[A]; IB=b*[B]; IP=p*[P]; [A]0=2.5*10^−5. With this formula, there will be 5 parameters, but based on the nature of the reaction and the fluorescent properties of the compounds, the 5 parameters can be restrained as: p>b>a>0; k1>k2>0. Finally, the formula and the conditions were applied in Origin 6.0 to fit the curves by non-linear regression, yielding values for the kobs for each step.
Kinetic experiments were carried out at 37° C. using Synergy H4 Hybrid Multi-Mode Microplate Reader with excitation and emission monochromators 9 nm bandpass. Solutions with different MPA concentrations were prepared in 96-well plate and labelling reagent (YC5 or YC9) in DMSO was added immediately before recording. The final concentration of labelling reagent was 25 μM and the final concentrations of MPA were 0.875 mM, 1 mM, 1.125 mM or 1.25 mM in 50 mM HEPES buffer (pH 7.4) with 5% DMSO (FIG. 12). Samples were excited at 440 nm and fluorescence intensity was followed at 485 nm as a function of time. All the time-dependent fluorescence increase curves were fitted by non-linear regression according to the formula from the last section using Origin to get kobs. kobs was plotted against MPA concentrations to obtain a second order rate constant.

A short description of series [4]: Time-dependent fluorescence increase on reaction with GSH. The settings on record: for reaction with low concentration of GSH / reaction with high concentration (large excess) of GSH: 25 μM fluorogen; for reaction with low concentration of GSH: 50 μM GSH; for reaction with high concentration (large excess) of GSH: 1 mM GSH; for reaction with GSH: 50 mM HEPES pH 7.4. As for the experimental part: as §1

For a further series, the system named is cmyc-mNeptune-dC10α. Description: Intracellular labelling of test protein in transfected cells (YC9). Type of series: cell-based, human. The text has this:
The red fluorescent protein mNeptune was chosen as a target protein so that its intrinsic fluorescence would serve as a control for the transfection and expression of the target protein. The target sequence dC10α was cloned to its C-terminus and the cmyc epitope (which would ensure the protein was also at least partially directed to the nucleus) was cloned to its N-terminus. […] Furthermore, fluorescent labelling was most intense and nearly limited to cells (FIG. 11D) that expressed the target red fluorescent test protein (FIG. 11E).
HEK 293T cells were plated into 6-well plates equipped with 25 mm×25 mm coverslips and grown in DMEM supplemented with 10% FBS 16 h before transfection. Cells were transiently transfected with mNeptune-dC10α or pcDNA3.1 using lipofectamine 2000. Either 24 or 48 h after transfection, the cells were washed with complete DMEM and incubated with 25 μM YC9 in DMEM for 30 min at 37° C. The media with labelling reagent was removed and followed by 3 times washing over 3 h at 37° C. Cells were fixed after labelling for imaging on a Carl Zeiss Axiophot inverted microscope.

Another series is described as follows: Aqueous solubility. Type of series: physicochemical.

On to `COC(=O)CCN(CCC(=O)OC)c1ccc2cc(C(=O)Nc3cc(N4C(=O)C=C(OC)C4=O)cc(N4C(=O)C=C(OC)C4=O)c3)c(=O)oc2c1` [YC21M, Dimethyl 3,3′-((3-((3,5-bis(3-methoxy-2,5-dioxo-2,5-dihydro-1H-pyrrol-1-yl)phenyl)carbamoyl)-2-oxo-2H-chromen-7-yl)azanediyl)dipropanoate], for which, in the series on HEK293T cells, the “cytotoxicity (cell viability, MTT)” value is “neither showed any cytotoxicity up to 100 μM”.

One may read the melting point as the temperature of the solid-liquid transition. `CCN(CC)c1ccc2cc(C(=O)Nc3cc(N4C(=O)C=C(C)C4=O)cc(N4C(=O)C=C(OC)C4=O)c3)c(=O)oc2c1` [YC9, 7-(Diethylamino)-N-(3-(3-methoxy-2,5-dioxo-2,5-dihydro-1H-pyrrol-1-yl)-5-(3-methyl-2,5-dioxo-2,5-dihydro-1H-pyrrol-1-yl)phenyl)-2-oxo-2H-chromene-3-carboxamide] came in with a melting point of 88.3 to 93.7 °C. In addition, in the series on MBP-dC10α [1], the “Fluorescence enhancement (FE)” value stood at 62, the “fluorescence after the labelling reaction” value is given as “strongly fluorescent” and the “background (intrinsic) fluorescence before labelling / quenching” value is recorded as “negligible background fluorescence”. Moreover, in the series on MBP-dC10α [2], the “reactivity with test protein MBP-dC10” value is “still rapid”. In addition, in series [3], the “first thiol addition faster than second addition” value is recorded as 63 times, the k1 is 2.480 ± 0.216 M⁻¹ s⁻¹ and the k2 worked out at 0.0388 ± 0.0133 M⁻¹ s⁻¹. Moreover, in series [4], the “reaction with low concentration of GSH” value is reported as “did not react”, the “reaction with high concentration (large excess) of GSH” value (from here on “reaction with high concentration”) was “showed some signal” and the “reaction with GSH” value was “completely suppressed”. In addition, the “selectivity of labelling dC10α-tagged target protein in living cells” value with cmyc-mNeptune-dC10α (HEK293 cells transfected with cmyc-mNeptune-dC10α, 25 μM YC9, 30 min) is “high selectivity”. Besides, in the series with cmyc-mNeptune-dC10α (cells transfected with empty (mock) vector, 25 μM YC9), the “background fluorescence in mock-transfected cells” value is listed as “minimal background fluorescence”.

Turning to `CCN(CC)c1ccc2cc(C(=O)Nc3cc(N4C(=O)C=C(C)C4=O)cc(N4C(=O)C=C(C(C)C)C4=O)c3)c(=O)oc2c1` [YC16], in the series with MBP-dC10α [1], the “Fluorescence enhancement (FE)” value came to 228. Further, in series [4], the “reaction with low concentration of GSH” value is listed as “did not react” and the “reaction with high concentration” value was “showed some signal”.

As for `COc1ccc2cc(C(=O)N3CCN(C(=O)c4cc(N5C(=O)C=C(C)C5=O)cc(N5C(=O)C=C(C)C5=O)c4)CC3)c(=O)oc2c1` [YC24, 1,1′-(5-(4-(7-methoxy-2-oxo-2H-chromene-3-carbonyl)piperazine-1-carbonyl)-1,3-phenylene)bis(3-methyl-1H-pyrrole-2,5-dione)], in the series on MBP-dC10α [1], the “fluorescence after the labelling reaction” value is listed as “weak” and the “background (intrinsic) fluorescence before labelling / quenching” value is reported as “quenched very efficiently”.

In the case of `CCN(CC)c1ccc2cc(C(=O)Nc3cc(N4C(=O)C=C(C)C4=O)cc(N4C(=O)C=C(OC(C)C)C4=O)c3)c(=O)oc2c1` [YC19], in the series on MBP-dC10α [1], the “Fluorescence enhancement (FE)” value was determined as 189. Further, in series [4], the “reaction with low concentration of GSH” value is “did not react” and the “reaction with high concentration” value is “showed some signal”.

On to `COc1ccc2cc(C(=O)Nc3cc(N4C(=O)C=C(C)C4=O)cc(N4C(=O)C=C(C)C4=O)c3)c(=O)oc2c1` [YC26, N-(3,5-bis(3-methyl-2,5-dioxo-2,5-dihydro-1H-pyrrol-1-yl)phenyl)-7-methoxy-2-oxo-2H-chromene-3-carboxamide], for which, in the series “Aqueous solubility”, the aqueous solubility result is “poor aqueous solubility”.

Regarding `CCOC1=CC(=O)N(c2cc(NC(=O)c3cc4ccc(N(CC)CC)cc4oc3=O)cc(N3C(=O)C=C(C)C3=O)c2)C1=O` [YC17], in the series on MBP-dC10α [1], the “Fluorescence enhancement (FE)” value amounted to 194. Further, in series [4], the “reaction with low concentration of GSH” value is on record as “did not react” and the “reaction with high concentration” value is listed as “showed some signal”.

`CCC1=CC(=O)N(c2cc(NC(=O)c3cc4ccc(N(CC)CC)cc4oc3=O)cc(N3C(=O)C=C(C)C3=O)c2)C1=O` [YC15]: the “Fluorescence enhancement (FE)” value in the series with MBP-dC10α [1] is listed as 226. Besides, in series [4], the “reaction with low concentration of GSH” value was “did not react” and the “reaction with high concentration” value was “showed some signal”.

For the molecule `CCN(CC)c1ccc2cc(C(=O)Nc3cc(N4C(=O)C=C(C)C4=O)cc(N4C(=O)C=C(Br)C4=O)c3)c(=O)oc2c1` [YC18], in the series with MBP-dC10α [1], the “Fluorescence enhancement (FE)” value is given as 468. In the series on MBP-dC10α [2], the “reactivity with test protein MBP-dC10” value is given as “much more reactive than other fluorogens; also recorded: labelled the protein most efficiently” and the “selectivity of labelling target protein over GSH” value is “did not show much difference; also recorded: not as selectively as other fluorogens”.

Consider `CCN(CC)c1ccc2cc(C(=O)Nc3cc(N4C(=O)C=C(C)C4=O)cc(N4C(=O)C=C(C)C4=O)c3)c(=O)oc2c1` [YC5, N-(3,5-bis(3-methyl-2,5-dioxo-2,5-dihydro-1H-pyrrol-1-yl)phenyl)-7-(diethylamino)-2-oxo-2H-chromene-3-carboxamide], for which, in the series on MBP-dC10α [1], the “Fluorescence enhancement (FE)” value was 69, the “fluorescence after the labelling reaction” value was “strong fluorescence; also recorded: strongly fluorescent” and the “background (intrinsic) fluorescence before labelling / quenching” value is “negligible background fluorescence”. In addition, the “selectivity of labelling target protein over GSH” value in the series on MBP-dC10α [2] was “reacted faster with MBP-dC10α than with GSH”. Besides, in series [3], the “first thiol addition faster than second addition” value stood at 7 times, the k1 was 1.208 ± 0.249 M⁻¹ s⁻¹ and the k2 came to 0.1571 ± 0.0510 M⁻¹ s⁻¹. In addition, the “reaction with GSH” value in series [4] is listed as “still appreciable”.

On to `CCN(CC)c1ccc2cc(C(=O)N3CCN(C(=O)c4cc(N5C(=O)C=C(C)C5=O)cc(N5C(=O)C=C(C)C5=O)c4)CC3)c(=O)oc2c1` [YC25, 1,1′-(5-(4-(7-(diethylamino)-2-oxo-2H-chromene-3-carbonyl)piperazine-1-carbonyl)-1,3-phenylene)bis(3-methyl-1H-pyrrole-2,5-dione)], for which the “background (intrinsic) fluorescence before labelling / quenching” value with MBP-dC10α [1] is “strong background fluorescence”.
